Values quoted from earlier work as cited in patent US20130122119A1, “PHYLLANTHUS AMARUS COMPOSITIONS AND METHOD OF EXTRACTING SAME” (NATREON, INC., priority 2011, published 2013).

Tests used:
TNF-α release = details: read-out: IC50 of TNF-α release inhibition
[1] = tested on: hepatitis B surface antigen (HBsAg) secretion; details: non-cytotoxic concentration of 200 μg/ml
[2] = tested on: hepatitis B e-antigen (HBeAg) secretion; details: non-cytotoxic concentration of 200 μg/ml
[3] = geraniin isolated from Phyllanthus sellowianus
mouse skin tumors = details: week 20, treatment prior to okadaic acid

Row | Molecule | IC50 (TNF-α release) | inhibition of HBsAg secretion [1] | inhibition of HBeAg secretion [2] | analgesic potency at the ID50 level (micromol/kg) relative to aspirin and acetaminophen [3] | average numbers of tumor per mouse (mouse skin tumors; 3.8 without treatment) | percentage of tumor-bearing mice (mouse skin tumors; 80.0% without treatment)
1 | O=C(O[C@@H]1O[C@@H]2COC(=O)c3cc(O)c(O)c(O)c3-c3c(cc(O)c(O)c3O)C(=O)O[C@H]([C@H]1O)[C@@H]2O)c1cc(O)c(O)c(O)c1 [Corilagin, beta-1-O-galloyl-3,6-(R)-hexahydroxydiphenoyl-D-glucose] | 76 µM |  |  |  |  | 
2 | O=C1OC2C3COC(=O)c4cc(O)c(O)c(O)c4-c4c(cc(O)c(O)c4O)C(=O)OC2C(OC(=O)c2cc(O)c(O)c4c2C2C1=CC(=O)C(O)(O4)C2(O)O)C(OC(=O)c1cc(O)c(O)c(O)c1)O3 [Geraniin, beta-D-Glucopyranose, cyclic 2-7:4-5-(3,6-dihydro-2,9,10,11,11-pentahydroxy-3-oxo-2,6-methano-2H-1-benzoxocin-5,7-dicarboxylate) cyclic 3,6-(4,4′,5,5′,6,6′-hexahydroxy(1,1′-biphenyl)-2,2′-dicarboxylate) 1-(3,4,5-trihydroxybenzoate)] | 43 µM | more than 85.8% | > 63.7% | about six- to seven-fold more potent | 1.1 | 40.0%
3 | (−)-epigallocatechin gallate | 26 µM |  |  |  |  | 
